Values joined by “and” are separate entries in the source; they are usually repeats but may differ in a detail not shown here. Equal entries are not always repeated.
Tests used:
[1] = system: rats receiving syngeneic kidney transplant; test: Plasma creatinine after syngeneic kidney transplant (cold ischemia/reperfusion); format: in vivo, Lewis rats; conditions: for Plasma Creatinine 16 h: 16 h after transplant; for Plasma Creatinine 16 h / Plasma Creatinine 24 h: 15 mg/kg; for Plasma Creatinine 24 h: 24 h after transplant
Description: (§1) Adult male Lewis rats (RT11) (Charles River, Calco Italia S.p.A, Italy) were used. All animals were allowed free access to food and water. The study was performed in a syngeneic kidney transplant model using such rats as donor and graft recipients. Donor animals were anaesthetized with leptofen. The left kidney was prepared by freeing the ureter from the attachments. The renal artery was separated from the renal vein by dissection. The donor kidney and ureter were removed “en bloc” and flushed with Belzer (UW) containing 1000 U/ml of heparin. Then the kidney was placed in an iced Belzer (UW) solution for 4-6 hours (cold ischemia) until transplant. Recipients were prepared by removal of the left kidney. Animal treatment with DF 1681B is summarized below. Kidney grafts were washed with saline solution before transplant. An anastomosis was created between the recipient and the donor renal artery as well as renal vein with end-to-end anastomosis. Vascular clamps were released after 30 minutes (warm ischemia). Donor and recipient ureters were attached end-to-end. The native right kidney was then removed. Animals were placed in individual metabolic cages for measurements of daily urine output as an index of renal function recovery. After 16 and 24 hours, renal function was assessed by measuring plasma creatinine concentration. Twenty-four hours after kidney transplantation, the animals were sacrificed. The kidney graft was removed, cut in slices and put in Dubosq-Brazil solution for the analysis of conventional histology by light microscopy. Moreover, additional kidney fragments were frozen in liquid nitrogen and used for immunohistochemical analysis of inflammatory cell infiltrate (polymorphonuclear cells, MHC class II positive cells).
(§2) Group 1 (n.=3) rats recipients of a kidney graft exposed to 4 hours cold ischemia and treated with the IL-8 inhibitor DF 1681B.
(§3) Group 2 (n.=3) rats recipients of a kidney graft exposed to 4 hours cold ischemia and treated with the vehicle.
(§4) Group 3 (n.=3) rats recipients of a kidney graft exposed to 6 hours cold ischemia and treated with the IL-8 inhibitor DF 1681B.
(§5) Group 4 (n.=3) rats recipients of a kidney graft exposed to 6 hours cold ischemia and treated with the vehicle.
(§6) The recipients were pretreated the day before the experiment (15 mg/kg s.c.). The animals received an intravenous injection of DF 1681B (15 mg/kg) immediately before reperfusion of the transplanted kidney. Additional administration of the compound (15 mg/kg s.c.) was performed 2 hours after transplantation. Control animals were given vehicle at the same time points and using the same administration method as for animals treated with DF 1681B.
(§7) Data were analyzed using the non-parametric Kruskal-Wallis test for multiple comparisons or the Tukey-Cicchetti test.

[2] = system: rats receiving syngeneic kidney transplant; test: Immunohistochemical granulocyte count in transplanted kidney, syngeneic transplant; format: in vivo, Lewis rats; parameters: Granulocytes Intravasc.: unit not given here; conditions: for Granulocytes Inrterstitial / Granulocytes Intraglom / Granulocytes Intravasc. / Granulocytes Periglom. / Granulocytes Perivasc.: 24 h post-transplant
Description: as §1, §2, §3, §4, §5, §6, §7

[3] = system: rats receiving syngeneic kidney transplant; test: MHC II positive interstitial cell count in transplanted kidney, syngeneic transplant; format: in vivo, Lewis rats; parameters: MHC II+ interstitial cells: unit not given here
Description: as §1, §2, §3, §4, §5, §6, §7

[4] = system: rats receiving syngeneic kidney transplant; test: Semi-quantitative histological score for renal damage, syngeneic transplant; format: in vivo, Lewis rats
Description: as §1, §2, §3, §4, §5, §6, §7

[5] = system: rats receiving allogeneic kidney transplant; test: Plasma creatinine after allogeneic kidney transplant; format: in vivo, Brown Norway rats; conditions: for Plasma Creatinine 16 h / Plasma Creatinine 24 h: allogeneic, 6 h cold ischemia
Description: The following experimental group of animals were considered:
Group 1 (n=9) Brown Norway rats recipients of a kidney graft of Lewis rats exposed to 6 hours cold ischemia and treated with vehicle.
Group 2 (n=5) Brown Norway rats recipients of a kidney graft of Lewis rats exposed to 6 hours cold ischemia and treated with the IL-8 inhibitor DF 1681B.
as §6, with “experiment (20” for “experiment (15”, “The animal” for “The animals”, “1681B (20” for “1681B (15”, “compound (20” for “compound (15”
as §7

[6] = system: mouse model; test: Chemotaxis in vivo in a mouse model
[7] = system: models of ischemia/reperfusion injury; test: PMN infiltration in models of ischemia/reperfusion injury, mice; format: in vivo
[8] = system: models of ischemia/reperfusion injury; test: PMN infiltration in models of ischemia/reperfusion injury, rats; format: in vivo
[9] = system: IL-8; conditions: in vitro; described in WO 00/24710; cited from earlier work
[10] = 4 h cold ischemia, group mean ± SD
[11] = 4 h cold ischemia, individual rats, 15 mg/kg s.c./i.v./s.c.
[12] = 6 h cold ischemia, group mean ± SD
[13] = 6 h cold ischemia, individual rats
[14] = 4 h cold ischemia, individual rats, high-power fields (X400)
[15] = 6 h cold ischemia, individual rats, high-power fields (X400)
[16] = 4 h cold ischemia, 24 h after transplantation, individual rats
[17] = 6 h cold ischemia, 24 h after transplantation, individual rats
[18] = individual Brown Norway rats, 20 mg/kg s.c./i.v./s.c.

SMILES: CC(C)Cc1ccc([C@@H](C)C(=O)NS(C)(=O)=O)cc1.NCCCC[C@H](N)C(=O)O [DF1681B, R(−)-N-[2-(4-Isobutylphenyl)propionyl]-methanesulfonamide salt of L(+)-lysine]
- Plasma Creatinine 16 h [1, 10]: 0.91 ± 0.18° mg/dl
- Plasma Creatinine 16 h [1, 11]: 1.09 mg/dL and 0.74 mg/dL and 0.89 mg/dL
- Plasma Creatinine 24 h [1, 10]: 0.78 ± 0.19° mg/dl
- Plasma Creatinine 24 h [1, 11]: 0.99 mg/dL and 0.64 mg/dL and 0.71 mg/dL
- Renal function (plasma creatinine), effect in words ([1]; 4 h ischemic kidneys): protected animals from renal function deterioration
- Plasma Creatinine 16 h [1, 12]: 2.23 ± 0.36*Δ mg/dl
- Plasma Creatinine 16 h [1, 13]: 2.32 mg/dL and 2.54 mg/dL and 1.84 mg/dL
- Plasma Creatinine 24 h [1, 12]: 1.83 ± 0.09 mg/dL
- Plasma Creatinine 24 h [1, 13]: 1.89 mg/dL and 1.87 mg/dL and 1.72 mg/dL
- Plasma creatinine concentrations, effect in words ([1]; 6 hours ischemia): significantly reduced plasma creatinine concentrations
- Granulocytes Inrterstitial [2, 10]: 12.1 ± 3.7
- Granulocytes Intraglom [2, 10]: 9.5 ± 3.9
- Granulocytes Intravasc. [2, 10]: 3.2 ± 4.3
- Granulocytes Periglom. [2, 10]: 5.4 ± 1.5
- Granulocytes Perivasc. [2, 10]: 5.4 ± 2.5
- Granulocytes Inrterstitial [2, 14]: 9.1 ± 6.4 and 11 ± 4.8 and 16.2 ± 8.3
- Granulocytes Intraglom [2, 14]: 7.4 ± 4.7 and 14 ± 15.4 and 7 ± 2.9
- Granulocytes Intravasc. [2, 14]: 1.5 ± 2.4 and 0 and 8 ± 5.3
- Granulocytes Periglom. [2, 14]: 5.3 ± 4.5 and 4 and 7 ± 8
- Granulocytes Perivasc. [2, 14]: 3 ± 0.8 and 8 ± 2.6 and 5.3 ± 4.6
- Granulocyte count in the intraglomerular area, effect in words ([2]; 4 hour cold ischemia): numerically but not significantly lowered
- PMN infiltrate, effect in words ([2]; 4 hour cold ischemia): decreases the PMN infiltrate
- Granulocytes Inrterstitial [2, 12]: 3 ± 1.7 cells per high-power field
- Granulocytes Intraglom [2, 12]: 5.5 ± 2 cells per high-power field
- Granulocytes Intravasc. [2, 12]: 1.1 ± 1.7
- Granulocytes Periglom. [2, 12]: 2.1 ± 1.1
- Granulocytes Perivasc. [2, 12]: 4.1 ± 2.9
- Granulocytes Inrterstitial [2, 15]: 2.5 ± 4.6 and 4.8 ± 5.6 and 1.6 ± 1.2
- Granulocytes Intraglom [2, 15]: 5.0 ± 6.0 and 3.7 ± 3.0 and 7.7 ± 6.5
- Granulocytes Intravasc. [2, 15]: 0.2 ± 0.4 and 0 and 3.0 ± 4.0
- Granulocytes Periglom. [2, 15]: 1.0 ± 1.8 and 3.2 ± 1.9 and 2.2 ± 1.2
- Granulocytes Perivasc. [2, 15]: 1.0 ± 1.3 and 6.8 ± 8.9 and 4.5 ± 4.4
- Interstitial inflammatory cells, effect in words ([2]; 6 hour ischemia, p<0.01): significantly lowered
- Number of MHC class II cells, effect in words ([3]; 4 and 6 hour ischemia): not affected
- MHC II+ interstitial cells [3, 10]: 8.7 ± 3.4
- MHC II+ interstitial cells ([3]; 4 h cold ischemia, individual rats, high-power fields (×400)): 5.1 ± 6.2 and 9.1 ± 2 and 11.9 ± 6.3
- MHC II+ interstitial cells [3, 12]: 14.4 ± 4.7
- MHC II+ interstitial cells ([3]; 6 h cold ischemia, individual rats, high-power fields (×400)): 10.5 ± 4.7 and 13.1 ± 7 and 19.7 ± 3.3
- Histological damage Glomerular (score) [4, 16]: 0 score
- Histological damage Interstitial (score) [4, 16]: 2.5 score and 2 score (2×)
- Histological damage Tubular (score) [4, 16]: 1.5 score and 0.7 score and 0.5 score
- Histological damage Glomerular (score) [4, 10]: 0 score
- Histological damage Interstitial (score) [4, 10]: 2 ± 0.3 score
- Histological damage Tubular (score) [4, 10]: 0.7 ± 0.6 score
- Tubular changes, effect in words ([4]; 4 hour ischemia): attenuated but did not normalize tubular changes
- Histological damage Glomerular (score) [4, 17]: 0 score
- Histological damage Interstitial (score) [4, 17]: 3 score
- Histological damage Tubular (score) [4, 17]: 1.7 score (2×) and 1.2 score
- Histological damage Glomerular (score) [4, 12]: 0 score
- Histological damage Interstitial (score) [4, 12]: 3 score
- Histological damage Tubular (score) [4, 12]: 1.5 ± 0.3 score
- Focal ischemic changes in the glomeruli, effect in words ([4]; 6 hour ischemia): prevented
- Serum creatinine levels, effect in words ([5]; allogeneic transplant, 20 mg/kg, 16 and 24 hours): significant prevention of increased serum creatinine levels
- Plasma Creatinine 16 h [5, 18]: 1.05 mg/dL and 1.2 mg/dL and 1 mg/dL and 0.84 mg/dL and 1.01 mg/dL
- Plasma Creatinine 24 h [5, 18]: 1.3 mg/dL and 1.39 mg/dL and 0.87 mg/dL and 0.69 mg/dL and 0.85 mg/dL
- Plasma Creatinine 16 h ([5]; group mean, 20 mg/kg): 1.02 mg/dL
- Plasma Creatinine 24 h ([5]; group mean, 20 mg/kg): 1.02 mg/dL
- Inhibition of chemotaxis in vivo [6]: inhibit chemotaxis in vivo
- Inhibition of PMN infiltration [7]: inhibit PMN infiltration
- Inhibition of PMN infiltration [8]: inhibit PMN infiltration
- Inhibition of the chemotaxis of neutrophils induced by IL-8 [9]: selective in vitro inhibitors

SMILES: CC(C)Cc1ccc([C@@H](C)C(=O)NS(C)(=O)=O)cc1 [(R)-ibuprofen methanesulfonamide, R(−)-N-[2-(4-Isobutylphenyl)propionyl]-methanesulfonamide]
- Inhibition of the chemotaxis of neutrophils induced by IL-8 [9]: selective in vitro inhibitors

Reference: patent publication US7560487B2, “Use of (R)—ibuprofen methanesulfonamide and salts thereof in the treatment and prevention of rejection reactions of transplanted organs” (Dompé Pha.r.ma S.p.A., priority 2001, dated 2009)
